For one data set, the system named is nicotine-lethality. The data set is described as follows: inhibition of nicotine-lethality on mice (method of Stone). The class given is in vivo. As to conditions: for ED50: Mus musculus, po, read-out: ED50 /p.o./; for Therapeutic index: nicotine-lethality inhibition. The protocol: The inhibition of nicotine-lethality was determined on mice by the method of Stone /Stone, C. A. et al.: Arch. Intern.

A short description of data set [1]: analgesic effect on mice (method of Koster). As to conditions: for ED50: Mus musculus, po; for Therapeutic index: p.o. The data set is classed as in vivo. The protocol:  The analgesic effect was determined on mice by the method of Koster, R.
Anderson, M., De Beer, E. J., Fred.

The nature of data set [2]: acute toxicity on white mice (strain CFLP). As to conditions: mouse, in vivo, 4 days observation. The method, then:
The acut toxicity of the new compounds according to the invention was determined on white mice of both sexes weighing 18-24 g belonging to the strain CFLP. Administration was effected with an oral or intraperitoneal dosage of 20 ml/kg. After treatment the animals were kept under observation for 4 days.

The subject of another data set is noradrenaline. The data set is described as follows: noradrenaline antagonistic (alpha-receptor blocking) effect. The data set is classed as in vivo, cats.
A short description of data set [3]: hypotensive effect on anaesthesized cats. As to conditions: doses of 3 and 5 mg/kg. The data set is classed as in vivo. The method, then: (§1) The hypotensive effect of the new compounds was tested on anaesthesized cats. The compound of Example 7, administered in doses of 3 and 5 mg/kg, results in a prolonged decrease of blood pressure of 40 Hgmm. […] This compound, orally tested on waking rats of normal tension in a dosage of 100 mg/kg, results in a decrease of blood pressure of 13 Hgmm.

The test system of a further data set is isoproterenol. Description: isoproterenol antagonistic (beta-receptor blocking) effect. The data set is classed as in vivo, cats.
Data set [4] in a line: blood pressure of waking rats of normal tension, oral. The data set is classed as in vivo. As to conditions: orally, 100 mg/kg. The method, then: as §1
The test system of the next data set is carotid occlusion reflex. The data set is described as follows: effect on the carotid occlusion reflex. The data set is classed as in vivo, cats. As to conditions: qualitative. The method, then: as §1
A further data set concerns orthostatic hypotension. Description: influence on the orthostatic hypotension. The data set is classed as in vivo. As to conditions: qualitative.
For another data set, the system named is ischiadic nerve of rats. Description: local anaesthetic effect on the ischiadic nerve of rats (method of Truant and d'Amato). As to conditions: for Duration 0.25% / EC50: rats, ischiadic nerve; for Duration 0.25%: 0.25% concentration; for EC50: local anaesthesia; for Relative efficiency: referred to Lidocaine. The class given is in vivo. From the text:
The local anaesthetic effect was investigated on the ischiadic nerve of rats by means of the method of Truant and d'Amato /Truant, A. P. and Wiedling, S.: Acta Chirurg. Scand. 116, 351 /1958//. Lidocaine served as reference substance.
In Table III. below, the relative efficiency referred to Lidocaine and the duration of the effect on application of 0.25% concentrations of Lidocaine are given.

Where [5] appears, read: po, per os, read-out: LD50 per os.

The results in this text go back to patent publication US4395413A, “Oxime ethers and pharmaceutical compositions containing the same” (Egyt Gyogyszervegyeszeti Gyar, priority 1979, dated 1983).

Like-named read-outs stand apart in the source and are kept apart here.

As to `OC(CCN1CCCCC1)(c1ccccc1)C1CCCCC1` (stereo not shown) [Trihexyphenidyl, reference compound], the ED50 with nicotine-lethality (mice, p.o., nicotine-lethality) was 40 mg/kg. This compound came in with a Therapeutic index in the data set with nicotine-lethality (mice, p.o.) of 9.13.
Broadly, the LD50 is the dose at which mortality reaches 50%. On to `CCCCC1CCCCC1=NOCCCN(C)C` (stereo not shown) [Example 3, 2-n-butyl-1-/3'-dimethylaminopropoxyimino/-cyclohexane], for which, in data set [1], the ED50 turned out to be 45 mg/kg and the Therapeutic index turned out to be 9. In data set [2] (ip, read-out: LD50 i.p.), the LD50 at 96 h amounted to 100 mg/kg. The LD50 at 96 h in data set [2] (setting [5]) is 430 mg/kg.
Taken in the same sequence, the figures for `CCCC=C1CCCCC1=NOCCCN1CCN(Cc2ccccc2)CC1` [Example 8, 2-butylidene-[3'-/4"-benzylpiperazinyl/-propoxyimino]-cyclohexane] were 290 mg/kg, 5, 230 mg/kg and 1450 mg/kg.
In the same order, the values of `CCCCC1CCCCC1=NOCCCN1CCN(Cc2ccccc2)CC1` (stereo not shown) [Example 5, 2-n-butyl-1-[3'-/4"-benzylpiperazinyl/-propoxyimino]-cyclohexane] are 250 mg/kg, 5.2, 240 mg/kg and 1300 mg/kg.
Consider `CCCC=C1CCCCC1=NOCCCN1CCN(C)CC1` [Example 7, 2-butylidene-1-[3'-/4"-methylpiperazinyl/-propoxyimino]-cyclohexane], for which the ED50 in the data set on noradrenaline (Felis catus, iv, read-out: noradrenaline antagonistic i.v. ED50) was found to be 2.3 mg/kg; with isoproterenol (Felis catus, iv, read-out: isoproterenol antagonistic i.v. ED50), 2.5 mg/kg; in the data set with nicotine-lethality (mice, p.o., nicotine-lethality), 155 mg/kg. Moreover, in the data set with noradrenaline (qualitative), the alpha-receptor blocking effect result was “alpha- and beta-receptor blocking effect”. The “prolonged decrease of blood pressure” value in data set [3] is recorded as 40 Hgmm. Further, the beta-receptor blocking effect entry in the data set on isoproterenol (qualitative) is “alpha- and beta-receptor blocking effect”. For the same compound, the “decrease of blood pressure” value in [4] amounted to 13 Hgmm. The Therapeutic index with nicotine-lethality (mice, p.o.) turned out to be 10.0. Also, in the data set on carotid occlusion reflex, the “effect on the carotid occlusion reflex” value is “decreases the effect on the carotid occlusion reflex”. The LD50 at 96 h is 330 mg/kg in data set [2] (ip, read-out: LD50 i.p.) and 1600 mg/kg in data set [2] (setting [5]). For the same compound, the “influence on the orthostatic hypotension” value in the data set on orthostatic hypotension was “no influence on the orthostatic hypotension”.
As to `CCCCC=C1CCCCC1=NOCCCN1CCN(C)CC1` [Example 9, 2-pentylidene-1-[3'-/4"-methylpiperazinyl/-propoxyimino]-cyclohexane], in the data set on ischiadic nerve of rats, the “Duration 0.25%” value stood at 64 min, the EC50 was determined as 0.25 % conc and the Relative efficiency is reported as 0.76. In [1], this compound showed an ED50 of 500 mg/kg and a Therapeutic index of 6. In addition, in the data set with nicotine-lethality (mice, p.o., nicotine-lethality), the ED50 is 150 mg/kg. In the data set with nicotine-lethality (mice, p.o.), this compound gave a Therapeutic index of 20.0. The 50% lethal dose (LD50) at 96 h in data set [2] (ip, read-out: LD50 i.p.) is 200 mg/kg. Moreover, in [2] (setting [5]), the 50% lethal dose (LD50) at 96 h amounted to 3000 mg/kg.
On to `CCCCCC=C1CCCCC1=NOCCCN1CCN(C)CC1` [Example 15, 2-hexylidene-1-[3'-/4"-methylpiperazinyl/propoxyimino]-cyclohexane], for which the ED50 in the data set on nicotine-lethality (mice, p.o., nicotine-lethality) came out at 190 mg/kg. The Therapeutic index with nicotine-lethality (mice, p.o.) is given as 16.0. Further, the 50% lethal dose (LD50) at 96 h was found to be 200 mg/kg in data set [2] (ip, read-out: LD50 i.p.) and 3000 mg/kg in data set [2] (setting [5]).
For the compound `CCN(CC)CC(=O)Nc1c(C)cccc1C` [Lidocaine, reference compound], in the data set on ischiadic nerve of rats, the “Duration 0.25%” value came out at 24 min, the EC50 is 0.19 % conc and the Relative efficiency is listed as 1.00.
In data set [1], `CCCCC=C1CCCCC1=NOCCCN1CCN(Cc2ccccc2)CC1` [Example 10, 2-pentylidene-1-[3'-/4"-benzylpiperazinyl/-propoxyimino]-cyclohexane] showed an ED50 of 140 mg/kg and a Therapeutic index of 13.0. In addition, the LD50 at 96 h in data set [2] (ip, read-out: LD50 i.p.) came out at 160 mg/kg. For the same compound, in [2] (setting [5]), the LD50 at 96 h came out at 1800 mg/kg.
As for `CCCCCCCC=C1CCCCC1=NOCCCN1CCN(C)CC1` [Example 16, 2-octylidene-1-[3'-/4"-methylpiperazinyl/propoxyimino]-cyclohexane], the figures for the ED50 (in data set [1]; with nicotine-lethality) were 200 mg/kg and 150 mg/kg, respectively. The Therapeutic index came out at 15.0 in [1] and 17.6 in the data set with nicotine-lethality (mice, p.o.). In addition, the median lethal dose (LD50) at 96 h in data set [2] (ip, read-out: LD50 i.p.) is 270 mg/kg; in data set [2] (setting [5]), 3000 mg/kg.
In the case of `CCCCC1CCCCC1=NOCCN(C)C` (stereo not shown) [Example 1, 2-n-butyl-1-/2'-dimethylaminoethoxyimino/-cyclohexane], the ED50 in [1] was 320 mg/kg. Further, the LD50 at 96 h was determined as 135 mg/kg in data set [2] (ip, read-out: LD50 i.p.) and 580 mg/kg in data set [2] (setting [5]).
Consider `C=CCC1CCCCC1=NOCCCN1CCN(C)CC1` (stereo not shown) [Example 14, 2-allyl-[3'-/4"-methylpiperazinyl/-propoxyimino]-cyclohexane], for which, in the data set with nicotine-lethality (mice, p.o., nicotine-lethality), the ED50 was determined as 70 mg/kg. Besides, in the data set on nicotine-lethality (mice, p.o.), the Therapeutic index came to 22.0. Further, the median lethal dose (LD50) at 96 h in data set [2] (ip, read-out: LD50 i.p.) is 310 mg/kg; in [2] (setting [5]) it was 1600 mg/kg.
On to `CCCCC1CCCCC1=NOCC(C)CN(C)C` (stereo not shown) [Example 4, 2-n-butyl-1-/2'-methyl-3'-dimethylaminopropoxyimino/-cyclohexane], for which, in the data set on ischiadic nerve of rats, the “Duration 0.25%” value amounted to 31 min, the EC50 was determined as 0.15 % conc and the Relative efficiency came out at 1.13. The LD50 at 96 h in [2] (ip, read-out: LD50 i.p.) is 110 mg/kg. Moreover, in data set [2] (setting [5]), the LD50 at 96 h came to 400 mg/kg.
